The text below walks through data of patent US20240270810A1, “PREPARATION AND APPLICATION OF POLYPEPTIDE” (GUANGDONG RAYNOVENT BIOTECH CO., LTD., priority 2021, published 2024).

*1 amine or outer side, *2 acyl side, *3 side chain or, on linkers, in order; H or OH if unused. Where a SMILES comes first, the peptide text is derived from it. Bridges are numbered along the chain shown (N, C = ends). [ ]: non-standard residue; d: D form. X1 = O=C(O)CCCCCCCCCCCCCCCCCCC(=O)N[C@@H](CCC(=O)NCCOCCOCC(=O)NCCOCCOCC(=O)N[C@@H](CCC(=O)[*:1])C(=O)[*:2])C(=O)O; Aib = CC(C)(N)C(=O)O

The target of experiment [1] is T1, GLP-1R (Homo sapiens, UniProt P43220).
T1 construct: host or cells: HEK293
The experiment is described as follows: In vitro GLP-1R agonistic activity test (cAMP kit). The settings on record: HEK293 host cells, without 1% HSA. Type of experiment: cell-based. As to the method: (§1) The cell lines were constructed by Wuxi […] (Shanghai) Co., Ltd. See details in Table 1 below. [table] [table] The test compounds were diluted at a 4-fold dilution factor in 10 points, starting from an initial concentration of 30 μM. The dilution was carried out by Bravo. • 1) 100 nL of compounds were transferred to an OptiPlate-384 plate by Echo. • 2) The OptiPlate-384 plate was centrifuged at 1000 rpm for 5 s. • 1) A GLP-1R/GIPR cell cryovial was placed in warm water at 37° C. for rapid thawing. • 2) The cell suspension was transferred into a 15 mL Transfer centrifugal tube and rinsed with 10 mL of HBSS gently. • 3) The centrifugal tube was centrifuged at 1000 rpm at room temperature for 1 min. • 4) The supernatant was discarded. • 5) The bottom cells were gently dispersed, then gently rinsed with 10 mL of HBSS, the centrifugal tube was centrifuged to settle the cells, and finally the cells were resuspended in an experimental buffer. • 6) Cell density and viability were measured by Vi-cell. • 7) The GLP-1R/GIPR cells were diluted with the experimental buffer to a concentration of 2.0*10^5/mL. • 8) […] of the diluted cell suspension was transferred into the OptiPlate-384 plate. • 9) Incubation was performed at room temperature for 30 min. • 1) 10 μL of 800 nM gradient diluted cAMP standard was added into the empty wells of the OptiPlate-384 plate. • 2) 10 μL of cAMP assay reagent was added. • 3) The OptiPlate-384 plate was covered with TopSeal-A film and incubated at room temperature for 60 min. The TopSeal-A film was removed, and readout was performed on En Vision.

For experiment [2], the target named is T2, GIPR (Homo sapiens, UniProt P48546).
T2 construct: host or cells: CHO
T2 sequence (P48546 22-466): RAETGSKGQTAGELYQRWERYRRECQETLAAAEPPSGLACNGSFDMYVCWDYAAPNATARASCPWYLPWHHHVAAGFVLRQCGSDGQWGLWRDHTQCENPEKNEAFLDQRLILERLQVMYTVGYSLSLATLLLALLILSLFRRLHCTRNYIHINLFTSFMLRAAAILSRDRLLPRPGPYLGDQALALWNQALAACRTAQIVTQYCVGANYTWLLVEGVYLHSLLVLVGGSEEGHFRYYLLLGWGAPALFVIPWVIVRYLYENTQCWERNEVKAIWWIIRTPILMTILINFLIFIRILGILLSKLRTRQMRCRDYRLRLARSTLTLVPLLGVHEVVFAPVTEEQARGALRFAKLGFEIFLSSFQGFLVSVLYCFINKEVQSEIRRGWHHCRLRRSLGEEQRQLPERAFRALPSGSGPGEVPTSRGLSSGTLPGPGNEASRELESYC
The experiment is described as follows: In vitro GIPR agonistic activity test (cAMP kit). The experiment is classed as cell-based. The following applies: CHO host cells, without 1% HSA. As to the method: as §1, with “[table] [table]” left out

Experiment [3] deals with T3, GIPR (UniProt P48546 22-466, limits assumed).
T3 sequence (looked up): T2 sequence (P48546 22-466)
In words: cell-based or functional assay.

Experiment [4] has as its target GLP-1R (UniProt P43220 24-463, limits assumed). The experiment is described as follows: cell-based or functional assay.

T1 sequence (P43220 24-463, species assumed): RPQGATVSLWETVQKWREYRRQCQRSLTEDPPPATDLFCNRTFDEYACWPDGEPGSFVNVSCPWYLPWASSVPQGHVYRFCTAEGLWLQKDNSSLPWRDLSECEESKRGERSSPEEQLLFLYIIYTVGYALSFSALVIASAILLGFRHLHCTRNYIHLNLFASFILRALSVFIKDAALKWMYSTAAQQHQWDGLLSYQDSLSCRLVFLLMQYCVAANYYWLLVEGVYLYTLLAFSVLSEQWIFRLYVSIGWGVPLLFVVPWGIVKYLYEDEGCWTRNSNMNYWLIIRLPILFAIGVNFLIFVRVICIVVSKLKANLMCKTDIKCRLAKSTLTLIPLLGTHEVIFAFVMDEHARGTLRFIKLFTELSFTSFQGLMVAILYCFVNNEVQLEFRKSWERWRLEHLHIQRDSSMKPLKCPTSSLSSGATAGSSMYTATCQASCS

Turning to `CC[C@H](C)[C@H](NC(=O)[C@H](CC(C)C)NC(=O)[C@H](Cc1c[nH]c2ccccc12)NC(=O)[C@H](CCC(=O)O)NC(=O)[C@@H](NC(=O)[C@H](Cc1ccccc1)NC(=O)[C@H](C)NC(=O)[C@@H]1CCCCNC(=O)[C@@H](NC(=O)COCCOCCNC(=O)COCCOCCNC(=O)CC[C@H](NC(=O)CCCCCCCCCCCCCCCCCCC(=O)O)C(=O)O)CCC(=O)NCCCC[C@H](NC(=O)[C@H](CCCCN)NC(=O)[C@H](CC(=O)O)NC(=O)[C@H](CC(C)C)NC(=O)C(C)(C)NC(=O)[C@@H](NC(=O)[C@H](CO)NC(=O)[C@H](Cc2ccc(O)cc2)NC(=O)[C@H](CC(=O)O)NC(=O)[C@H](CO)NC(=O)[C@@H](NC(=O)[C@H](Cc2ccccc2)NC(=O)[C@@H](NC(=O)CNC(=O)[C@H](CCC(=O)O)NC(=O)C(C)(C)NC(=O)[C@@H](N)Cc2ccc(O)cc2)[C@@H](C)O)[C@@H](C)O)[C@@H](C)CC)C(=O)N[C@@H](C)C(=O)N[C@@H](CCC(N)=O)C(=O)N1)C(C)C)C(=O)N[C@@H](C)C(=O)NCC(=O)NCC(=O)N1CCC[C@H]1C(=O)N[C@@H](CO)C(=O)N[C@@H](CO)C(=O)NCC(=O)N[C@@H](C)C(=O)N1CCC[C@H]1C(=O)N1CCC[C@H]1C(=O)N1CCC[C@H]1C(=O)N[C@@H](CO)C(N)=O` [WX-011] (H-Y[Aib]EGTFTSDYSI[Aib]LDKKAQKAFVEWLIAGGPSSGAPPPS-NH2; linker 17-20 via X1), the EC50 (usually the concentration that produces a half-maximal response) at GLP-1R [1] turned out to be 0.018 nM; at GIPR [2], 0.25 nM.
The corresponding values for `CC[C@H](C)[C@H](NC(=O)[C@H](CC(C)C)NC(=O)[C@H](Cc1c[nH]c2ccccc12)NC(=O)[C@H](CCC(=O)O)NC(=O)[C@@H](NC(=O)[C@H](Cc1ccccc1)NC(=O)[C@H](C)NC(=O)[C@@H]1CCCCNC(=O)CN(C(=O)COCCOCCNC(=O)COCCOCCNC(=O)CC[C@H](NC(=O)CCCCCCCCCCCCCCCCC(=O)O)C(=O)O)CC(=O)NCCCC[C@H](NC(=O)[C@H](CCCCN)NC(=O)[C@H](CC(=O)O)NC(=O)[C@H](CC(C)C)NC(=O)C(C)(C)NC(=O)[C@@H](NC(=O)[C@H](CO)NC(=O)[C@H](Cc2ccc(O)cc2)NC(=O)[C@H](CC(=O)O)NC(=O)[C@H](CO)NC(=O)[C@@H](NC(=O)[C@H](Cc2ccccc2)NC(=O)[C@@H](NC(=O)CNC(=O)[C@H](CCC(=O)O)NC(=O)C(C)(C)NC(=O)[C@@H](N)Cc2ccc(O)cc2)[C@@H](C)O)[C@@H](C)O)[C@@H](C)CC)C(=O)N[C@@H](C)C(=O)N[C@@H](CCC(N)=O)C(=O)N1)C(C)C)C(=O)N[C@@H](C)C(=O)NCC(=O)NCC(=O)N1CCC[C@H]1C(=O)N[C@@H](CO)C(=O)N[C@@H](CO)C(=O)NCC(=O)N[C@@H](C)C(=O)N1CCC[C@H]1C(=O)N1CCC[C@H]1C(=O)N1CCC[C@H]1C(=O)N[C@@H](CO)C(N)=O` [WX-012] are 0.024 nM and 0.17 nM.
The corresponding values for `CC[C@H](C)[C@H](NC(=O)[C@H](CC(C)C)NC(=O)[C@H](Cc1c[nH]c2ccccc12)NC(=O)[C@H](CCC(=O)O)NC(=O)[C@@H](NC(=O)[C@H](Cc1ccccc1)NC(=O)[C@H](C)NC(=O)[C@@H]1CCCCNC(=O)CN(C(=O)COCCOCCNC(=O)COCCOCCNC(=O)CC[C@H](NC(=O)CC[C@H](NC(=O)CCCCCCCCCCCCCCCCCCC(=O)O)C(=O)O)C(=O)O)CC(=O)NCCCC[C@H](NC(=O)[C@H](CCCCN)NC(=O)[C@H](CC(=O)O)NC(=O)[C@H](CC(C)C)NC(=O)C(C)(C)NC(=O)[C@@H](NC(=O)[C@H](CO)NC(=O)[C@H](Cc2ccc(O)cc2)NC(=O)[C@H](CC(=O)O)NC(=O)[C@H](CO)NC(=O)[C@@H](NC(=O)[C@H](Cc2ccccc2)NC(=O)[C@@H](NC(=O)CNC(=O)[C@H](CCC(=O)O)NC(=O)C(C)(C)NC(=O)[C@@H](N)Cc2ccc(O)cc2)[C@@H](C)O)[C@@H](C)O)[C@@H](C)CC)C(=O)N[C@@H](C)C(=O)N[C@@H](CCC(N)=O)C(=O)N1)C(C)C)C(=O)N[C@@H](C)C(=O)NCC(=O)NCC(=O)N1CCC[C@H]1C(=O)N[C@@H](CO)C(=O)N[C@@H](CO)C(=O)NCC(=O)N[C@@H](C)C(=O)N1CCC[C@H]1C(=O)N1CCC[C@H]1C(=O)N1CCC[C@H]1C(=O)N[C@@H](CO)C(N)=O` [WX-013] are 0.057 nM and 0.18 nM.
In the same order, the values of `CC[C@H](C)[C@H](NC(=O)[C@H](CC(C)C)NC(=O)[C@H](Cc1c[nH]c2ccccc12)NC(=O)[C@H](CCC(=O)O)NC(=O)[C@@H](NC(=O)[C@H](Cc1ccccc1)NC(=O)[C@H](C)NC(=O)[C@@H]1CCCCNC(=O)CN(C(=O)COCCOCCNC(=O)COCCOCCNC(=O)CC[C@H](NC(=O)CC[C@H](NC(=O)CCCCCCCCCCCCCCCCC(=O)O)C(=O)O)C(=O)O)CC(=O)NCCCC[C@H](NC(=O)[C@H](CCCCN)NC(=O)[C@H](CC(=O)O)NC(=O)[C@H](CC(C)C)NC(=O)C(C)(C)NC(=O)[C@@H](NC(=O)[C@H](CO)NC(=O)[C@H](Cc2ccc(O)cc2)NC(=O)[C@H](CC(=O)O)NC(=O)[C@H](CO)NC(=O)[C@@H](NC(=O)[C@H](Cc2ccccc2)NC(=O)[C@@H](NC(=O)CNC(=O)[C@H](CCC(=O)O)NC(=O)C(C)(C)NC(=O)[C@@H](N)Cc2ccc(O)cc2)[C@@H](C)O)[C@@H](C)O)[C@@H](C)CC)C(=O)N[C@@H](C)C(=O)N[C@@H](CCC(N)=O)C(=O)N1)C(C)C)C(=O)N[C@@H](C)C(=O)NCC(=O)NCC(=O)N1CCC[C@H]1C(=O)N[C@@H](CO)C(=O)N[C@@H](CO)C(=O)NCC(=O)N[C@@H](C)C(=O)N1CCC[C@H]1C(=O)N1CCC[C@H]1C(=O)N1CCC[C@H]1C(=O)N[C@@H](CO)C(N)=O` [WX-014] are 0.071 nM and 0.24 nM.

B1: polypeptide compound WX-001 (peptide)
peptide: YXEGTFTSDYSIXLDKIAQKAFIKWLIAGGPSSGAPPPS
modifications: Aib at positions 2 and 13; C-terminal amide (-NH2); side-chain amino groups of Lys 20 and Lys 24 bridged by iminodiacetic acid (from Fmoc-Ida-OH) whose nitrogen carries Intermediate A-1 (fatty acid side chain, structure only in a drawing)
Turning to B1, in the experiment with GIPR [3], the “EC50 (nM), cAMP assay on GIPR CHO cells, (+) 1% HSA” value was found to be 16 nM; the “EC50 (nM), cAMP assay on GIPR CHO cells, (-) 1% HSA” value is 0.324 nM; the “Ratio of EC50 (+) 1% HSA to (-) 1% HSA, cAMP assay” value came to 49.3. In the experiment with GLP-1R [4], the “EC50 (nM), cAMP assay on GLP-1R HEK293 cells, (+) 1% HSA” value is 16.6 nM; the “EC50 (nM), cAMP assay on GLP-1R HEK293 cells, (-) 1% HSA” value was determined as 0.0596 nM; the “Ratio of EC50 (+) 1% HSA to (-) 1% HSA, cAMP assay” value amounted to 279.
